Test results taken from paper PMC11012064, “Synthesis of Antiprotozoal 2-(4-Alkyloxyphenyl)-Imidazolines and Imidazoles and Their Evaluation on Leishmania mexicana and Trypanosoma cruzi” (International Journal of Molecular Sciences, 2024).

Key:
[1] = system: L. mexicana promastigotes; test: Metabolic inhibition of Leishmania mexicana promastigotes, fluorometric analysis with resazurin; format: cell-based; conditions: for SI (CC50/IC50) L. mexicana: CC50 macrophages J774 / IC50 L. mexicana promastigotes; for IC50: Leishmania mexicana, 48 h, read-out: L. mexicana Promastigotes IC50, promastigotes, 24 h + 24 h resazurin, 27 °C, confidence interval (Probit) in parentheses, triplicate; for activity on L. mexicana (in words): promastigotes, in vitro
Description: A promastigote culture of L. mexicana was harvested in the stationary phase after 7 days of growth in culture. To each well of a sterile 96-well microplate, 5 × 10^5 promastigotes and the compound to be assessed (or the reference drug) were added to a final volume of 100 μL in RPMI culture medium supplemented with 10% SFB and 1% ampicillin/streptomycin. Each compound was examined at different concentrations, obtained by serial two-fold dilutions starting from 50 μg/mL. […] Promastigotes with 0.5% DMSO (at the vehicle concentration of the greatest dilution of the compound) served as the positive viability control and amphotericin B at a final concentration of 5 μg/mL served as the negative viability control. Each condition was assayed in triplicate.
After 24 h of incubation, 10 μL of 0.01% resazurin was added to each of the wells and incubation continued for another 24 h under the same conditions. The plate was read via a fluorometer (Spectramax M3, Molecular Devices, LLC, San Jose, CA, USA) at 544 nm excitation and 590 nm emission. Each treated well was compared to the positive viability control, and metabolic inhibition was expressed as a percentage. The IC50 value was determined with the Probit statistical tool version 4.1 [31, 32, 33].
Resazurin is a blue, permeable, and non-fluorescent compound. Upon entering cells, it is reduced to resorufin due to the reducing environment of the cytosol in living cells. Resorufin is red and highly fluorescent. The number of living cells is proportional to the fluorescence intensity of resorufin [31].

[2] = system: T. cruzi INC-5 epimastigotes; test: Metabolic inhibition of Trypanosoma cruzi INC-5 epimastigotes, colorimetric analysis with MTT; format: cell-based; conditions: for IC50: Trypanosoma cruzi, 24 h, 24 h + 20 h MTT, 27 °C, confidence interval (Probit) in parentheses, triplicate; for IC50 / activity on T. cruzi (in words): epimastigotes; for activity on T. cruzi (in words): in vitro; for SI (CC50/IC50) T. cruzi: CC50 macrophages J774 / IC50 T. cruzi INC-5 epimastigotes
Description: Epimastigotes of T. cruzi INC-5 were harvested after 7 days of growth in culture. […] The microplate was incubated in the dark at 27 °C for 24 h. Epimastigotes with 0.5% DMSO served as the positive viability control and the reference drugs nifurtimox ([…], Bayer, Germany) and benznidazole (Rochagan, Roche, Brazil) served as the negative viability control. Each condition was assayed in triplicate. Upon completion of the incubation time, 10 μL of MTT solution at 5 mg/mL was added to each well, and incubation continued in the dark at 27 °C for 20 h. Then, 100 μL of a solution containing 10% SDS and 0.01 M HCl was added to stop the reaction. […] The plates were read on a spectrophotometer (Spectramax Plus, Molecular Devices) at an absorbance of 570 nm. The result found in each well with a given concentration of the respective compound was compared to the positive viability control and the metabolic inhibition was expressed as a percentage. The IC50 was determined using the Probit statistical tool. MTT is a yellow, water-soluble compound. In living cells, […] is captured and reduced to its insoluble form (formazan, which is purple) by mitochondrial succinate dehydrogenase. The quantity of living cells is proportional to the amount of formazan produced.

[3] = Cytotoxic effect on macrophages, resazurin; format: cell-based, murine; conditions: mouse, J774A.1 macrophages; J774A.1 murine macrophages, 20 h + 4 h resazurin; confidence interval (Probit) in parentheses; triplicate; read-out: Macrophages J774 CC50
Description: (§1) The microplate was incubated at 37 °C with 5% CO2 and humidity for 24 h to allow for the formation of a cell monolayer with a confluence of 80%. Subsequently, a concentration–response evaluation was carried out. Briefly, one of the compounds at the corresponding concentration was placed in each well with macrophages. […] As the negative cytotoxicity control, cells were exposed to 1% DMSO. The microplate was incubated at 37 °C with 5% CO2 and humidity for 20 h. Afterwards, 10 μL of 0.01% resazurin was added and the microplate was incubated for 4 h. As mentioned above, the microplate was read via a fluorometer at 544 nm excitation and 590 nm emission. Each treated well was compared to the negative cytotoxicity control and the data were expressed as a percentage of metabolic inhibition. The Probit statistical tool was used to calculate the CC50.

[4] = system: J774A.1 macrophages; test: Cytotoxic effect on macrophages, resazurin; format: cell-based, murine; conditions: murine macrophage cell line
Description: as §1

Row | Structure (SMILES) | SI (CC50/IC50) L. mexicana [1] | IC50 [1] | activity on L. mexicana (in words) [1] | IC50 [2] | activity on T. cruzi (in words) [2] | CC50 [3] | melting point | SI (CC50/IC50) T. cruzi [2] | cytotoxic effect on macrophages (in words) [4]
1 | CCCCCCCCCOc1ccc(-c2ncc[nH]2)cc1 [compound 36, 8-Nonyloxyphenyl-2-imidazole] | 28.53 | 1.09 µg/mL | active | < 1 µg/mL | active | 31.3 µg/mL | – | – | –
2 | CCCCCCCCOc1ccc(-c2ncc[nH]2)cc1 [compound 35, 8-Octyloxyphenyl-2-imidazole] | 14.92 | 2.69 µg/mL | active | – | active | 40.2 µg/mL | 117 to 119 °C | – | –
3 | O=c1[nH]c2ccccc2nc1CBr [compound 38, 3-(Bromomethyl)quinoxalin-2(1H)-one] | – | > 50 µg/mL | no effect was detected | > 50 µg/mL | no effect was detected | – | 224 to 226 °C | – | –
4 | CCCCCCCOc1ccc(C2=NCCN2)cc1 [compound 29, 8-Hepthyloxyphenyl-2-imidazoline] | 106.21 | – | – | – | – | 21.5 µg/mL | 100 to 102 °C | – | –
5 | CCCOc1ccc(C2=NCCN2)cc1 [compound 24, 2-(4-Propyloxyphenyl)-4,5-dihydro-1H-imidazole] | – | – | – | – | – | – | 121 to 122 °C | – | –
6 | C[C@@H]1[C@H](O)[C@@H](C)/C=C/C=C/C=C/C=C/C=C/C=C/C=C/[C@H](O[C@@H]2O[C@H](C)[C@@H](O)[C@H](N)[C@@H]2O)C[C@@H]2O[C@](O)(C[C@@H](O)C[C@@H](O)[C@H](O)CC[C@@H](O)C[C@@H](O)CC(=O)O[C@H]1C)C[C@H](O)[C@H]2C(=O)O [AmB, amphotericin, reference compound] | 253.26 | 0.19 µg/mL | – | – | – | 48.1 µg/mL | – | – | –
7 | CCCCOc1ccc(C2=NCCN2)cc1 [compound 26, 2-(4-Butyloxyphenyl)-4,5-dihydro-1H-imidazole] | >37.98 | 2.63 µg/mL | – | 48.7 µg/mL | – | > 100 µg/mL | 122 to 123 °C | – | –
8 | CCCCCCCCOc1ccc(C2=NCCN2)cc1 [compound 30] | 48.11 | – | active | < 1 µg/mL | active | 9.72 µg/mL | 102 to 104 °C | – | –
9 | CCCCCCOc1ccc([C@@H](O)[C@@H](O)c2ccc(OCCCCCC)cc2)cc1 [compound 37, (1R,2S)-1,2-bis(4-hexyloxyphenyl)ethane-1,2-diol] | – | > 50 µg/mL | inactivity | > 50 µg/mL | inactivity | – | 122 to 123 °C | – | –
10 | CCCCCCOc1ccc(C2=NCCN2)cc1 [compound 28, 8-Hexyloxypheny-2-imidazoline] | 166.31 | – | – | 25.1 µg/mL | – | 29.2 µg/mL | 133 to 135 °C | 1.16 | –
11 | COc1ccc(C2=NCCN2)cc1 [compound 22, 2-(4-Methoxyphenyl)-4,5-dihydro-1H-imidazole] | >6.23 | 16 µg/mL | – | > 50 µg/mL | inactive | > 100 µg/mL | – | – | least cytotoxic effect
12 | CCCCCCOc1ccc(-c2ncc[nH]2)cc1 [compound 33, 8-Hexyloxyphenyl-2-imidazole] | 25.21 | 3.4 µg/mL | active | < 10 µg/mL | active | 85.7 µg/mL | 133 to 135 °C | – | –
13 | O=C(Cn1ccnc1[N+](=O)[O-])NCc1ccccc1 [Bnz, benznidazole, reference compound] | – | – | – | 11 µg/mL | – | 91.6 µg/mL | – | 8.31 | –
14 | CC(C)Oc1ccc(C2=NCCN2)cc1 [compound 25, 2-(4-iso-propyloxyphenyl)-4,5-dihydro-1H-imidazole] | – | – | – | – | – | – | 151 to 153 °C | – | –
15 | CCCCCCCCCOc1ccc(C2=NCCN2)cc1 [compound 31] | 92.56 | < 1 µg/mL | – | 21 µg/mL | – | 50.6 µg/mL | 103 to 105 °C | 2.40 | –
16 | CCOc1ccc(C2=NCCN2)cc1 [compound 23, 2-(4-Ethoxyphenyl)-4,5-dihydro-1H-imidazole] | >13.12 | 7.62 µg/mL | – | > 50 µg/mL | inactive | > 100 µg/mL | 180 to 182 °C | – | least cytotoxic effect
17 | CCCCCOc1ccc(C2=NCCN2)cc1 [compound 27, 8-Penthyloxyphenil-2-imidazoline] | 88.28 | < 1 µg/mL | – | 37.5 µg/mL | – | 71.3 µg/mL | 129 to 131 °C | 1.90 | –
18 | CC1CS(=O)(=O)CCN1/N=C/c1ccc([N+](=O)[O-])o1 (stereo not drawn) [Nfx, nifurtimox, reference compound] | – | – | – | 2.5 µg/mL | – | 57.8 µg/mL | – | 23.10 | –
